The supplement of paper PMC10331698
± gives the standard deviation of the averaged measurements.

How the values were obtained:
Assay in all cases: level (log10 ratio to DMSO vehicle control); higher = higher biomarker level / cell amount than vehicle control
Conditions in all cases: in DMSO
[1] = compound: O=S(=O)(O)CCC(F)(F)C(F)(F)C(F)(F)C(F)(F)C(F)(F)C(F)(F)F [6:2 Fluorotelomer sulfonic acid]
Procedure: (§1)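 BioMAP Diversity Plus panel of 12 human primary cell co-culture systems (3C, 4H, LPS, SAg, BT, BF4T, BE3C, CASM3C, HDF3CGF, KF3CT, MyoF, Mphg). Compounds were added 1 h before stimulation and left for 24 h (MyoF 48 h; BT 72 h for soluble read-outs or 6 d for IgG). Biomarkers were read by ELISA, cytotoxicity by SRB, PBMC viability and proliferation by Alamar Blue. Each well value was divided by the mean of 8 DMSO control wells on the same plate and log10 transformed; duplicate blinded samples were tested at 4 concentrations.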

[2] = compound: O=C(O)C(F)(F)C(F)(F)C(F)(F)C(F)(F)C(F)(F)C(F)(F)C(F)(F)C(F)(F)C(F)(F)C(F)F [11-H-Perfluoroundecanoic acid]
Procedure: as §1

Nonafluoropentanamide = compound: NC(=O)C(F)(F)C(F)(F)C(F)(F)C(F)(F)F [Nonafluoropentanamide]
Procedure: as §1

Hexafluoroamylene glycol = compound: OCC(F)(F)C(F)(F)C(F)(F)CO [Hexafluoroamylene glycol]
Procedure: as §1

[3] = compound: FC(F)(F)C(F)(F)C(F)(F)C(F)(F)C(F)(F)C(F)(F)CC1CO1 [3-(Perfluorohexyl)-1,2-epoxypropane]
Procedure: as §1

[4] = compound: O=S(=O)(Cl)C(F)(F)C(F)(F)C(F)(F)C(F)(F)C(F)(F)C(F)(F)C(F)(F)C(F)(F)F [Perfluoro-1-octanesulfonyl chloride]
Procedure: as §1

Test System	level (log10) ([1]; 6700 nM)	level (log10) ([1]; 20000 nM)	level (log10) ([1]; 60000 nM)	level (log10) ([2]; 6700 nM)	level (log10) ([2]; 20000 nM)	level (log10) (Nonafluoropentanamide; 6700 nM)	level (log10) (Nonafluoropentanamide; 20000 nM)	level (log10) (Nonafluoropentanamide; 60000 nM)	level (log10) (Hexafluoroamylene glycol; 6700 nM)	level (log10) (Hexafluoroamylene glycol; 20000 nM)	level (log10) (Hexafluoroamylene glycol; 60000 nM)	level (log10) ([3]; 6700 nM)	level (log10) ([3]; 20000 nM)	level (log10) ([3]; 60000 nM)	level (log10) ([4]; 6700 nM)	level (log10) ([4]; 20000 nM)	level (log10) ([4]; 60000 nM)
BF4T:CD54/ICAM-1	-0.0115 ± 0.00071	-0.015 ± 0.021	-0.0095 ± 0.018	-0.0375 ± 0.0021	-0.104 ± 0.016	-0.003 ± 0.0028	-0.0005 ± 0.00071	0.007 ± 0.0099	-0.0145 ± 0.005	-0.0045 ± 0.015	0.009 ± 0.014	-0.002 ± 0.0057	0.0025 ± 0.0021	0.007	-0.011 ± 0.0085	-0.023	-0.084
BF4T:CD90	-0.029 ± 0.017	-0.028 ± 0.0085	-0.031 ± 0.0042	-0.0485 ± 0.028	-0.0995 ± 0.029	-0.0145 ± 0.015	-0.0075 ± 0.0021	-0.013 ± 0.0042	-0.012 ± 0.0028	-0.017	-0.004 ± 0.011	-0.005 ± 0.0042	-0.0055 ± 0.0092	0.0085 ± 0.028	0.0005 ± 0.00071	-0.019	-0.028 ± 0.038
BF4T:CD106/VCAM-1	-0.0125 ± 0.04	-0.0315 ± 0.0035	-0.022 ± 0.057	-0.062 ± 0.0057	-0.148 ± 0.079	-0.015 ± 0.059	-0.0485 ± 0.03	-0.014 ± 0.017	-0.0015 ± 0.023	0.0045 ± 0.023	0.034 ± 0.025	0.0195 ± 0.0021	0.017 ± 0.0028	0.0275 ± 0.028	-0.0255 ± 0.029	-0.04 ± 0.028	-0.126 ± 0.088
BF4T:CXCL8/IL-8	0.069 ± 0.058	0.0625 ± 0.044	0.0805 ± 0.057	0.0575 ± 0.019	0.0005 ± 0.026	0.055 ± 0.021	0.028 ± 0.057	0.0235 ± 0.088	-0.018	-0.002 ± 0.0014	0.0175 ± 0.033	0.013 ± 0.02	-0.02 ± 0.028	0.0075 ± 0.0064	0.002 ± 0.024	0.0225 ± 0.012	-0.009 ± 0.018
BF4T:IL-1alpha	0.006 ± 0.0085	0.0005 ± 0.0092	0.023 ± 0.018	0.025 ± 0.027	-0.0955 ± 0.026	-0.017 ± 0.0042	-0.0035 ± 0.028	-0.003 ± 0.0014	-0.001 ± 0.014	-0.0175 ± 0.0035	0.0075 ± 0.029	0.003 ± 0.0071	-0.0135 ± 0.005	0.013 ± 0.028	-0.0015 ± 0.0092	-0.0045 ± 0.005	-0.0925 ± 0.005
BF4T:Keratin 8/18	0.0075 ± 0.019	-0.0065 ± 0.016	0.0045 ± 0.011	-0.0025 ± 0.011	-0.062 ± 0.0085	-0.008 ± 0.013	-0.0145 ± 0.015	-0.0305 ± 0.042	0.0045 ± 0.018	-0.0075 ± 0.0092	0.0125 ± 0.013	-0.0045 ± 0.03	-0.014 ± 0.011	0.015 ± 0.037	0.0075 ± 0.00071	0.0125 ± 0.00071	-0.0805 ± 0.035
BF4T:MMP-1	-0.0085 ± 0.00071	-0.0125 ± 0.0078	0.0065 ± 0.013	-0.0115 ± 0.013	0.0005 ± 0.026	-0.009 ± 0.0042	-0.0005 ± 0.013	-0.01 ± 0.0099	-0.0105 ± 0.005	-0.007 ± 0.0014	0 ± 0.0085	-0.003 ± 0.0057	0.0045 ± 0.0021	0.023 ± 0.027	0.008 ± 0.016	0.025 ± 0.014	-0.042 ± 0.0071
BF4T:MMP-3	-0.0095 ± 0.074	-0.0015 ± 0.0035	0.0515 ± 0.025	0.0035 ± 0.046	0.002 ± 0.028	-0.03 ± 0.0099	-0.0415 ± 0.012	-0.0105 ± 0.015	-0.016 ± 0.037	-0.0205 ± 0.028	0.011 ± 0.042	0.0155 ± 0.011	0.018 ± 0.024	0.0475 ± 0.03	-0.0125 ± 0.0021	0.0225 ± 0.028	-0.0595 ± 0.0035
